Values belong to the molecule of their own block, whether it stands above or below them.
Legend:
[1] = Oral bioavailability in rat; assay type: ADME, organism-based; details: in vivo
[2] = tested on: Rattus norvegicus; assay: Oral activity determined using the salt-deplete spontaneously hypertensive rat (SHR) model, expressed as percent of maximum decrease in mean arterial pressure at a oral dose of 10 umol/kg for 12-18 hr; assay type: functional, Artery
[3] = tested on: Rattus norvegicus; assay: Oral activity determined using the salt-deplete spontaneously hypertensive rat (SHR) model, expressed as percent of maximum decrease in mean arterial pressure at a oral dose of 10 umol/kg for 6-12 hr; assay type: functional, Artery
[4] = tested on: Rattus norvegicus; assay: Oral activity determined using the salt-deplete spontaneously hypertensive rat (SHR) model, expressed as percent of maximum decrease in mean arterial pressure at a oral dose of 10 umol/kg for 0-6 hr; assay type: functional, Artery
[5] = tested on: Rattus norvegicus; assay: Oral activity determined using the salt-deplete spontaneously hypertensive rat (SHR) model, expressed as percent of maximum decrease in mean arterial pressure at a oral dose of 10 umol/kg for 18-24 hr; assay type: functional, Artery
[6] = tested on: Rattus norvegicus; assay: Tested for fall in blood pressure on seventh day after dosing; assay type: functional
[7] = tested on: Rattus norvegicus; assay: Oral activity determined using the salt-deplete spontaneously hypertensive rat (SHR) model, expressed as percent of maximum decrease in mean arterial pressure at a oral dose of 30 umol/kg for 6-12 hr; assay type: functional, Artery
[8] = tested on: Rattus norvegicus; assay: Oral activity determined using the salt-deplete spontaneously hypertensive rat (SHR) model, expressed as percent of maximum decrease in mean arterial pressure at a oral dose of 30 umol/kg for 18-24 hr; assay type: functional, Artery
[9] = tested on: Rattus norvegicus; assay: Oral activity determined using the salt-deplete spontaneously hypertensive rat (SHR) model, expressed as percent of maximum decrease in mean arterial pressure at a oral dose of 30 umol/kg for 12-18 hr; assay type: functional, Artery
[10] = organism: Oryctolagus cuniculus; assay: Functional antagonism was measured by the ability of a single concentration of compound to block angiotensin II induced contractions in rabbit aortic smooth muscle strips.; details: Aorta
[11] = tested on: Rattus norvegicus; assay: Oral activity determined using the salt-deplete spontaneously hypertensive rat (SHR) model, expressed as percent of maximum decrease in mean arterial pressure at a oral dose of 30 umol/kg for 0-6 hr; assay type: functional, Artery

bioavailability [1]: 39%
SMILES: CC(C)C(OC(=O)C(C)(C)C)n1nnc(-c2ccccc2-c2ccc(Oc3c(C4CC4)nc4ccccc4c3C(=O)O)cc2)n1 (stereo not given)
Decrease [2]: 20%
Decrease [3]: 17%
Decrease [4]: 17%
Decrease [5]: 19%

bioavailability [1]: 27%
SMILES: Cc1oc(=O)oc1COC(=O)c1c(Oc2ccc(-c3ccccc3-c3nn[nH]n3)cc2)c(C2CC2)nc2ccccc12
Decrease [2]: 23%
Decrease [3]: 19%
Decrease [4]: 19%
Blood pressure [6]: 45 mmHg
Decrease [5]: 24%

SMILES: O=C(O)c1c(Oc2ccc(-c3ccccc3-c3nn[nH]n3)cc2)c(C2CC2)nc2ccccc12
Decrease [7]: 14%
Decrease [8]: 23%
Decrease [9]: 21%
Kb [10]: 0.061 nM
Decrease [11]: 14%

SMILES: CCC(=O)OC(OC(=O)c1c(Oc2ccc(-c3ccccc3-c3nn[nH]n3)cc2)c(C2CC2)nc2ccccc12)C(C)C (stereo not given)
Decrease [2]: 9%
Decrease [3]: 5%
Decrease [4]: 7%
Decrease [5]: 19%

SMILES: CCOC(=O)c1c(Oc2ccc(-c3ccccc3-c3nn[nH]n3)cc2)c(C2CC2)nc2ccccc12
Decrease [7]: 19%
Decrease [8]: 26%
Decrease [9]: 25%
Decrease [11]: 17%

SMILES: CCCCc1nc(Cl)c(CO)n1Cc1ccc(-c2ccccc2-c2nnn[nH]2)cc1 [LOSARTAN]
Blood pressure [6]: 20 mmHg
